According to paper PMC3402541, “Guanidylation and Tail Effects in Cationic Antimicrobial Lipopeptoids” (PLoS ONE, 2012):
In brackets after ≈: the same amount, converted by molar mass. Where a SMILES comes first, the peptide text is derived from it. [ ]: non-standard residue; d: D form. The star is where a group is joined. Palmitoyl = CCCCCCCCCCCCCCCC(=O)*; Undecanoyl = CCCCCCCCCCC(=O)*; Nlys = NCCCCNCC(=O)O

Tests used:
[1] = test system: MSSE 81388 CANWARD 2008; type: cell-based, methicillin-susceptible S. epidermidis; conditions: 24 h
Method in brief: (§1)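 Minimum inhibitory concentrations come from CLSI macrobroth testing at 37°C for 24 hr, in cation-adjusted Mueller-Hinton broth inoculated at about 5 x 10^5 CFU/mL. Performed once.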

[2] = test system: all three strains of E. coli; type: cell-based, Escherichia coli; conditions: 24 h
Method in brief: as §1

[3] = test system: E.coli CAN-ICU 61714; type: cell-based, Escherichia coli; conditions: CAN-ICU 61714, 24 h
Method in brief: as §1

[4] = test system: E.coli CAN-ICU 63074; type: cell-based, Escherichia coli; conditions: CAN-ICU 63074, 24 h
Method in brief: as §1

[5] = test system: E.coli ATCC 25922; type: cell-based, Escherichia coli; conditions: ATCC 25922, 24 h
Method in brief: as §1

[6] = test system: MRSA ATCC 33592; type: cell-based, methicillin-resistant S. aureus; conditions: ATCC 33592, 24 h
Method in brief: as §1

[7] = test system: K.pneumoniae ATCC 13883; type: cell-based, Klebsiella pneumoniae; conditions: ATCC 13883, 24 h
Method in brief: as §1

[8] = test system: ovine erythrocytes; assay: Haemolytic assay; type: cell-based, sheep; conditions: ovine erythrocytes in Tris buffered saline, 30 minutes, absorbance of supernatant at 540 nm
Method in brief: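 Washed sheep erythrocytes in Tris-buffered saline exposed to compound (50 μg/mL–1 mg/mL; final 4.08 x 10^8 cells/mL) for 30 min. After centrifugation, supernatant absorbance at 540 nm gave % haemolysis; 0.5% ammonium chloride as positive control.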

[9] = test system: MRSE CAN-ICU 61589; type: cell-based, methicillin-resistant S. epidermidis; conditions: CAN-ICU 61589, 24 h
Method in brief: as §1

[10] = test system: S.pneumoniae ATCC 49619; type: cell-based, Streptococcus pneumoniae; conditions: ATCC 49619, 24 h
Method in brief: as §1

[11] = test system: A. baumannii CAN-ICU 63169; type: cell-based, Acinetobacter baumannii; conditions: CAN-ICU 63169, 24 h
Method in brief: as §1

[12] = test system: P.aeruginosa ATCC 27853; type: cell-based, Pseudomonas aeruginosa; conditions: ATCC 27853, 24 h
Method in brief: as §1

[13] = test system: P.aeruginosa CAN-ICU 62308; type: cell-based, Pseudomonas aeruginosa; conditions: CAN-ICU 62308, 24 h
Method in brief: as §1

[14] = test system: S. maltophilia CAN-ICU 62584; type: cell-based, Stenotrophomonas maltophilia; conditions: CAN-ICU 62584, 24 h
Method in brief: as §1

[15] = test system: S.aureus ATCC 29213; type: cell-based, Staphylococcus aureus; conditions: ATCC 29213, 24 h
Method in brief: as §1

[16] = test system: E. faecium ATCC 27270; type: cell-based; conditions: ATCC 27270, 24 h
Method in brief: as §1

[17] = test system: E. faecalis ATCC 29212; type: cell-based, Enterococcus faecalis; conditions: ATCC 29212, 24 h
Method in brief: as §1

[18] = test system: panel of clinically relevant and laboratory reference bacteria; assay: Antimicrobial activity over the whole bacterial panel; type: cell-based; conditions: Gram positive and Gram negative strains, no BSA
Experimental: Antimicrobial activity of the purified lipopeptoids was determined without replication against a panel of clinically relevant and standard reference bacterial strains according to CLSI macrobroth standards. Stock solutions at 512 µg/mL were prepared in water, with DMSO as needed, and testing was performed in glass test tubes using Muller-Hinton broth and bacteria adjusted to 5 × 10^5 CFU/mL. Bacteria were incubated with the lipopeptoid of interest for 24 hr at 37°C prior to reading. […]
After subculturing the relevant bacteria twice from frozen stock, in vitro activities of the antimicrobials were determined by macrobroth dilution methodology in accordance with the Clinical and Laboratory Standards Institute (CLSI) guidelines (3). The MICs were determined using glass test tubes (2 mL/tube) containing doubling antimicrobial dilutions of cation adjusted Mueller-Hinton broth inoculated to achieve a final concentration of approximately 5 x 10^5 CFU/mL, incubated in ambient air for 24 hr prior to reading. […]

Structure (SMILES)	MIC MSSE [1] [µg/mL]	MIC MSSE in the presence of 4% bovine serum albumin [1] [µg/mL]	MIC E.coli [3] [µg/mL]	MIC E.coli in the presence of 4% bovine serum albumin [3] [µg/mL]	MIC E.coli [4] [µg/mL]	MIC E.coli in the presence of 4% bovine serum albumin [4] [µg/mL]	MIC E.coli [5] [µg/mL]	MIC E.coli in the presence of 4% bovine serum albumin [5] [µg/mL]	MIC MRSA [6] [µg/mL]	MIC MRSA in the presence of 4% bovine serum albumin [6] [µg/mL]	MIC K.pneumoniae [7] [µg/mL]	MIC K.pneumoniae in the presence of 4% bovine serum albumin [7] [µg/mL]	Percent haemolysis at 100µg/mL of compound [8] [%]	MIC MRSE [9] [µg/mL]	MIC MRSE in the presence of 4% bovine serum albumin [9] [µg/mL]	MIC S.pneumoniae [10] [µg/mL]	MIC S.pneumoniae in the presence of 4% bovine serum albumin [10] [µg/mL]	MIC A. baumannii [11] [µg/mL]	MIC A. baumannii in the presence of 4% bovine serum albumin [11] [µg/mL]	MIC P.aeruginosa [12] [µg/mL]	further results
CCCCCCCCCCCCCCCC(=O)N(CCCCN)CC(=O)NCC(=O)N(CCCCN)CC(N)=O [C16-NlysGNlys] (Palmitoyl-[Nlys]-Gly-[Nlys]-NH2)	8 (≈ 14.1 µM)	512	16 (≈ 28.1 µM)	512	16 (≈ 28.1 µM)	512	16 (≈ 28.1 µM)	512	16 (≈ 28.1 µM)	512	64 (≈ 113 µM)	>512	56.03	16 (≈ 28.1 µM)	512	128 (≈ 225 µM)	512	128 (≈ 225 µM)	>512	64 (≈ 113 µM)	MIC against all three strains of E. coli [2]: 16 µg/mL; MIC P.aeruginosa in the presence of 4% bovine serum albumin [12]: >512 µg/mL; MIC P.aeruginosa [13]: 128 µg/mL (≈ 225 µM); MIC P.aeruginosa in the presence of 4% bovine serum albumin [13]: >512 µg/mL; MIC S. maltophilia [14]: 128 µg/mL (≈ 225 µM); MIC S. maltophilia in the presence of 4% bovine serum albumin [14]: >512 µg/mL; MIC S.aureus [15]: 8 µg/mL (≈ 14.1 µM); MIC S.aureus in the presence of 4% bovine serum albumin [15]: 512 µg/mL; MIC E. faecium [16]: 16 µg/mL (≈ 28.1 µM); MIC E. faecium in the presence of 4% bovine serum albumin [16]: 512 µg/mL; MIC E. faecalis [17]: 16 µg/mL (≈ 28.1 µM); MIC E. faecalis in the presence of 4% bovine serum albumin [17]: 512 µg/mL
CCCCCCCCCCCCCCCC(=O)N(CCCCNC(=N)N)CC(=O)NCC(=O)N(CCCCNC(=N)N)CC(N)=O [C16-NhargGNharg]	8 (≈ 12.3 µM)	512	16 (≈ 24.5 µM)	512	16 (≈ 24.5 µM)	512	16 (≈ 24.5 µM)	512	8 (≈ 12.3 µM)	512	64 (≈ 98 µM)	512	61.06	16 (≈ 24.5 µM)	512	128 (≈ 196 µM)	512	128 (≈ 196 µM)	>512	64 (≈ 98 µM)	MIC against all three strains of E. coli [2]: 16 µg/mL; MIC P.aeruginosa in the presence of 4% bovine serum albumin [12]: >512 µg/mL; MIC P.aeruginosa [13]: 64 µg/mL (≈ 98 µM); MIC P.aeruginosa in the presence of 4% bovine serum albumin [13]: >512 µg/mL; MIC S. maltophilia [14]: 64 µg/mL (≈ 98 µM); MIC S. maltophilia in the presence of 4% bovine serum albumin [14]: >512 µg/mL; MIC S.aureus [15]: 8 µg/mL (≈ 12.3 µM); MIC S.aureus in the presence of 4% bovine serum albumin [15]: 512 µg/mL; MIC E. faecium [16]: 16 µg/mL (≈ 24.5 µM); MIC E. faecium in the presence of 4% bovine serum albumin [16]: 512 µg/mL; MIC E. faecalis [17]: 16 µg/mL (≈ 24.5 µM); MIC E. faecalis in the presence of 4% bovine serum albumin [17]: 512 µg/mL
CCCCCCCCCCC(=O)N(CCCCN)CC(=O)N(CCCCN)CC(=O)N(CCCCN)CC(N)=O [C11-NlysNlysNlys]	512 (≈ 899 µM)	512	>512	>512	>512	>512	>512	>512	512 (≈ 899 µM)	>512	>512	>512	0.67	512 (≈ 899 µM)	512	>512	>512	>512	>512	>512	Antimicrobial activity over the panel (in words) [18]: broadly inactive; MIC P.aeruginosa in the presence of 4% bovine serum albumin [12]: >512 µg/mL; MIC P.aeruginosa [13]: >512 µg/mL; MIC P.aeruginosa in the presence of 4% bovine serum albumin [13]: >512 µg/mL; MIC S. maltophilia [14]: >512 µg/mL; MIC S. maltophilia in the presence of 4% bovine serum albumin [14]: >512 µg/mL; MIC S.aureus [15]: 512 µg/mL (≈ 899 µM); MIC S.aureus in the presence of 4% bovine serum albumin [15]: >512 µg/mL; MIC E. faecium [16]: 256 µg/mL (≈ 449 µM); MIC E. faecium in the presence of 4% bovine serum albumin [16]: 512 µg/mL; MIC E. faecalis [17]: 512 µg/mL (≈ 899 µM); MIC E. faecalis in the presence of 4% bovine serum albumin [17]: >512 µg/mL
CCCCCCCCCCC(=O)N(CCCCN)CC(=O)NCC(=O)N(CCCCN)CC(N)=O [C11-NlysGNlys] (Undecanoyl-[Nlys]-Gly-[Nlys]-NH2)	256 (≈ 513 µM)	512	>512	>512	>512	>512	>512	>512	512 (≈ 1030 µM)	>512	>512	>512	1.34	256 (≈ 513 µM)	512	512 (≈ 1030 µM)	512	>512	>512	>512	Antimicrobial activity over the panel (in words) [18]: broadly inactive; MIC P.aeruginosa in the presence of 4% bovine serum albumin [12]: >512 µg/mL; MIC P.aeruginosa [13]: >512 µg/mL; MIC P.aeruginosa in the presence of 4% bovine serum albumin [13]: >512 µg/mL; MIC S. maltophilia [14]: >512 µg/mL; MIC S. maltophilia in the presence of 4% bovine serum albumin [14]: >512 µg/mL; MIC S.aureus [15]: 512 µg/mL (≈ 1030 µM); MIC S.aureus in the presence of 4% bovine serum albumin [15]: >512 µg/mL; MIC E. faecium [16]: 512 µg/mL (≈ 1030 µM); MIC E. faecium in the presence of 4% bovine serum albumin [16]: >512 µg/mL; MIC E. faecalis [17]: 512 µg/mL (≈ 1030 µM); MIC E. faecalis in the presence of 4% bovine serum albumin [17]: >512 µg/mL
